In general, melting point refers to the temperature, or range, at which the solid turns liquid.

SMILES strings stand for the structures. Some results are limits rather than exact numbers.

This passage reports melting point results from a melting point compilation (Tetko et al.; mined from patent text by program, amines drawn as free bases though some values may be those of a salt).

`N#Cc1ccccc1Cn1cc(-c2ccnc(NCCCO)n2)n(-c2ccc(F)cc2)c1=O` gave a melting point of 166 to 167 °C.

`CCc1cccc(Cn2[nH]c(N)cc2=O)c1` returned a melting point of 73 °C. Under `CC(C)n1cc(C(=O)C(F)(F)F)c2ccc([N+](=O)[O-])cc21` stands 143 to 145 °C; under `Clc1nc2cccc3c2n1CCC3`, 78 °C; under `CCCN(c1ccncc1F)n1c(C)cc2ccccc21`, 5 °C. On to `COC(=O)C1=C(CF)NC(C)=C(C(=O)OC(C)C)C1c1cccc(Cl)c1C` (centres undefined), for which the melting point fell in the range of 73 to 75 °C. The value for `OC(c1cccc(F)c1)(c1cccc(F)c1)C1CCNCC1` was 117 to 118 °C.

Take `COc1ccc(Oc2ccccc2NS(C)(=O)=O)cc1`: the melting point lay in the range of 81 to 83 °C. The value for `CS(=O)c1ccc2c3c(cccc13)C(=O)N2` (centres undefined) was 178 to 185 °C; that for `CC(C)C(=O)OCC(=O)C12OC(C3CCCCC3)OC1CC1C3CCC4=CC(=O)C=CC4(C)C3C(O)CC12C` (centres undefined) was 210 to 211 °C; that for `CCOC(=O)c1cc(Nc2cccc(Cl)c2Cl)c(C(=O)OCC)cc1Nc1cccc(Cl)c1Cl` was 265 to 266 °C. Take `O=C(O)Cn1cnnn1`: the melting point is 125 to 127 °C. Consider `COc1ccc(-c2cc(F)c(F)cc2-c2ccc(S(N)(=O)=O)cc2)cc1F`, for which the melting point lay in the range of 132 to 133 °C. The value for `CS(=O)(=O)c1ccc(-c2ccccc2Br)cc1` was 168 to 170 °C.

`Cc1c(-c2ccc(C[C@H](NC(=O)c3c(F)cccc3C(F)(F)F)C(=O)O)cc2)c(=O)n(C)c(=O)n1C`: the melting point was 218 to 220 °C. Take `O=C1NCCCN1Cc1ccc2ccccc2c1`: the melting point is 151 to 155 °C.

Regarding `CC1CC2=C(Cc3ccccc32)C([Si](C)(C)C2CC(C)CC3=C2Cc2ccccc23)C1` (centres undefined), the melting point is 179 to 180 °C. The value for `O=C(NCCCl)NC(c1cccc(C(F)(F)F)c1)C(F)(F)F` (centres undefined) was 124 to 128 °C; that for `COc1cc(C(C)=O)ccc1OC(C)=O` was 58.7 °C; that for `CC(C(=O)O)c1ccc2c(c1)CCc1cccnc1S2` (centres undefined) was 181 to 183 °C. In the case of `COC(=O)CCC(=O)c1ccc(Cl)c(S(N)(=O)=O)c1`, the melting point was in the range of 113 to 115 °C. The value for `CCCN(CCC)C(=O)Cn1c(=O)n(C)c2cnc(-c3ccccc3)nc21` was 156 to 157 °C; that for `CS(=O)(=O)c1ccc(-c2cc(CCO)sc2-c2ccc(F)cc2)cc1` was 102 to 108 °C; that for `O=c1ccc2nc3ccc(F)cc3sc-2c1Cl` was 250 to 255 °C. As for `CCCCCNS(=O)(=O)NC(=O)OCc1ccccc1`, the melting point fell in the range of 142 to 143 °C.

As to `O=C1NC(=S)SC1=Cc1c(F)c(F)c(F)c(F)c1F`, the melting point was in the range of 132 to 135 °C. With `CCCc1c(OCCCCCCOc2ccc(C(=O)c3cccc(C(=O)OCC)c3)cc2CCC(=O)OCC)ccc2c1OCCC2=O`, the melting point fell in the range of 58 to 59.5 °C. The value for `COc1cc(-c2nc3ncccc3o2)cc(C(C)(C)C)c1` was 119 to 121 °C; that for `CCOC(=O)c1cnc2c(SC(=O)N(C)C)cccn2c1=O` was 133 to 134 °C; that for `CCN(CC)C(=O)c1cc2ccccc2c(-c2cccc(F)c2)n1` was 92 °C.

In turn, `COc1ccc2c(C)cccc2c1C(F)(F)F` gave a melting point of 70 to 71 °C. In the case of `CCN1CC(=O)N(C)c2cc([N+](=O)[O-])c(OC)cc2C1`, the melting point lay within 129 to 131 °C. In turn, `CS(=O)(=O)c1c(N2CCN(C(=O)c3cccs3)CC2)c2cccnc2n(Cc2ccccc2)c1=O` displayed a melting point of 223 °C. The value for `CCCN1C(=O)CC(C)(C)c2cc(C)c(-c3cc(C=O)ccc3OC(F)(F)F)cc21` was 219 to 223 °C; that for `O=C1C(CN2CCN(CCO)CC2)CCN1c1ccc(Cl)cc1` (centres undefined) was 130 to 131 °C. Molecule `CCCc1nc2c(c(C)c(C)n3nnnc23)n1CC(C)(C)NC(=O)NC1CCCCC1` yielded a melting point of 196 to 198 °C. As to `Cn1cc(-c2cccc(N3Cc4cc(C(C)(C)C)ccc4C3=O)c2CO)cc(Nc2ccncn2)c1=O`, the melting point lay in the range of 216 to 218 °C.

The molecule `CC(C)(C)OC(=O)N1CCC(c2nc3cc(-c4ccc(S(C)(=O)=O)cc4F)ccc3[nH]2)CC1` displayed a melting point of 88 to 92 °C. In turn, `COc1cc(C(=O)N2CCN(C(=O)/C=C/c3cccc(-c4cc(OC)c(OC)c(OC)c4)c3)CC2)cc(OC)c1OC` showed a melting point of 149 to 151 °C. In the case of `CCN(CC)C(=O)/C=C(\C)c1ccc(OC(C)c2ccccc2)c(OC(C)(C)C(=O)O)c1` (centres undefined), the melting point lay within 117 to 119 °C.

Turning to `CCCn1ccc2c(NCCc3ccc(OC)cc3)cccc2c1=O`, the melting point was 109 to 110 °C. The value for `Cc1ccc(S(=O)(=O)OCC2COc3ccc([N+](=O)[O-])c(C=CC=O)c3O2)cc1` (centres undefined) was 138 to 140 °C. Under `CCN(CC)CCNC(=O)c1cc(Cl)c(N)cc1OCC(=O)c1ccccc1` stands 153 to 154 °C; under `CC(C)(C)OC(=O)NCCOc1noc2ccc(Cl)cc12`, 106 to 107 °C; under `COc1ccc(CCc2ccncc2NC(=O)NCc2ccccc2)cc1OC1CCCC1`, 152 to 154 °C. For the molecule `CC(=O)Nc1ccc([N+](=O)[O-])cc1O`, the melting point is > 250 °C. The value for `CCCOc1ccc(-c2scc(-c3ccccc3Cl)c2CC(=O)OC)cc1` was 81 to 82 °C.

The molecule `CN1C(=O)[C@@](NC(=O)Nc2cccc(CNc3nnn[nH]3)c2)(C2CCCCC2)N=Cc2ccccc21` returned a melting point of 175 to 178 °C. As for `O=C(Nc1cccc(Cl)c1)c1ccccc1CN1C(=O)C2(COc3cc4c(cc32)CCO4)c2ccccc21` (centres undefined), the melting point is > 230 °C. Molecule `COc1ccc(CNC(=S)SC)cc1` yielded a melting point of 67 to 70 °C.

In turn, `C#CCc1c(C)nc2c(OCc3c(C)cccc3NC(=O)C(C)O)cccn12` (centres undefined) gave a melting point of 186 to 188 °C. `Cc1ccc(CCC(CO)n2cnc(C(N)=O)c2)cc1` (centres undefined): the melting point is 138 to 141 °C. In the case of `COc1ccc2c(=O)c3c(OC)cccc3oc2c1OC`, the melting point was 145 to 146 °C.

In turn, `Cc1cc(-n2cncn2)c2cccc(OCc3c(Cl)ccc(S(=O)(=O)N4CCC[C@H]4C(=O)NCC4CCN(CCCO)CC4)c3Cl)c2n1` returned a melting point of 136 °C. Regarding `CC(C)[C@H](C[C@@H]1OC(C)(C)N(C(=O)OC(C)(C)C)[C@H]1CC1CCCCC1)C(=O)NCCNc1nc(N)n[nH]1`, the melting point was in the range of 99 to 112 °C. Under `Cc1cc(C)cc(C(=O)N2CCC(N3CCC(NCCc4ccccc4)CC3)CC2Cc2ccccc2)c1` (centres undefined) stands 67.8 °C; under `CCCCCCCCCCCCCc1nc(N)no1`, 90 to 91 °C; under `O=C(O)C=Cc1cccc2nnsc12`, 199 to 202 °C. Turning to `COc1ccc(CCc2cc3cc(Br)ccc3o2)cc1`, the melting point lay within 109 to 111 °C. Under `O=c1[nH]c(=O)n(C2CC(OCc3ccccc3)C(CO)O2)cc1C(F)(F)F` (centres undefined) stands 157 to 158 °C. The value for `O=C(NCc1ccccc1)N1CC(Oc2cccc(C(F)(F)F)c2)C1` was 174 to 175 °C; that for `COc1ccccc(Br)c1=O` was 74 to 75 °C.

For the molecule `OC(c1nc(-c2ccc(F)cc2)c(-c2ccc(F)cc2)[nH]1)(C(F)(F)F)C(F)(F)F`, the melting point was in the range of 153 to 155 °C. `O=C(Nc1ccc2ccc(Cl)nc2n1)c1ccccc1F` gave a melting point of 222 °C.

Molecule `COc1ccccc1CNCc1c(-c2ccccc2)c2cc(C)c(C)cc2c(=O)n1C` registered a melting point of 159 to 160 °C. The molecule `CN1CCC(Cc2cc3cccnc3[nH]2)C1` (centres undefined) displayed a melting point of 96 to 97 °C.

Turning to `O=Cc1ccc(OCCN2C(=O)COc3ccccc32)cc1`, the melting point was 75 to 78 °C.

For `O=c1nc(-c2ccc(F)cc2)c2c([nH]1)CCCC2`, the melting point lay in the range of 248 to 253 °C. The value for `CN(C)CC(O)c1cc(-c2ccccc2)on1` (centres undefined) was 117 to 119 °C.

In the case of `CCOC(=O)c1c(C(F)(F)F)nc(C(F)F)c(C(=O)OC)c1Cl`, the melting point is 24 to 25 °C. Under `FC(F)(F)Oc1ccc(C2=CCC3(CC2)OCCO3)cc1` stands 53.9 to 55.5 °C. For `COc1ccc(SC)c2c1CC(N)(C#N)CC2` (centres undefined), the melting point lay in the range of 128 to 130 °C. The value for `NC(=O)C1=C(c2ccccc2)C(c2ccccc2)OC1=O` (centres undefined) was 125 to 127 °C. The molecule `Cc1nc2cc(NC(=O)c3cc4cc(F)cnc4n3Cc3ccncc3)ccc2n1C` registered a melting point of 263 to 265 °C. The value for `N=C(Nc1ccc2[nH]cc(C3CCN(C(=O)c4ccccc4)CC3)c2c1)c1cccs1` was 180 to 183 °C; that for `O=C1N(Cc2ccc(-c3ccccn3)cc2)c2ccccc2C12COc1cc3c(cc12)CCO3` (centres undefined) was 217 to 219 °C. Under `O=C(O)c1ccc(-c2ccc(F)cc2)cc1` stands 138 to 141 °C; under `O=S(=O)(c1cc(Cl)ccc1Cl)n1c2cc(O)c(O)cc2c2ccc(O)c(O)c21`, > 300 °C. Under `COc1cc(N)c(OCc2ccccc2)cc1OC` stands 74 °C; under `Cc1c(O)cc2c(c1Cl)CCC2(C)C`, 109 to 110 °C; under `Cc1cccc(CNC(=O)c2ccc3n2Cc2ccccc2N(C(=O)COc2ccc(Cl)cc2)C3)c1`, 130 to 131 °C.

As for `CC(C)(C)OC(=O)N1OC2C=CC1C2` (centres undefined), the melting point was in the range of 52 to 53 °C. In turn, `CSC[C@H](NC(C)=O)C(=O)N(C)N` registered a melting point of 156 to 157 °C. Under `CCCCCCCCS(=O)(=O)Nc1cc(C(F)(F)F)ccc1Oc1ccccc1C(=O)O` stands 167 to 168 °C; under `COc1ccc(COC(=O)c2ccccc2)cc1OCc1ccccc1`, 75.7 °C. The value for `Nc1ccc(C(=O)C=Cc2ccncc2)cc1` was 207 °C; that for `O=C1N(Cc2ncccn2)c2ccccc2C12COc1cc3c(cc12)OCCO3` (centres undefined) was 210 to 212 °C; that for `COC(=O)c1ccc(Cc2c(OCc3ccc(-c4ccccc4-c4nnn[nH]4)cc3)cc(C)nc2C)cc1` was 144 to 145 °C. The value for `COC(=O)COc1ccc(-c2cccc3sc4ccccc4c23)cc1` was 148 to 150 °C.
